Counter-ions that a name gives are not always drawn. Like-named read-outs stand apart in the source and are kept apart here.

The target in assay [1] is T1, Alpha2D adrenergic receptor (Rattus norvegicus, UniProt P22909).
T1 construct: The cortex is dissected out and homogenized in 20 volumes of HEPES sucrose; from tissue; host or cells: rat brain cortex, synaptic membrane fraction (male Wistar rats, Charles River)
T1 sequence (P22909 1-465): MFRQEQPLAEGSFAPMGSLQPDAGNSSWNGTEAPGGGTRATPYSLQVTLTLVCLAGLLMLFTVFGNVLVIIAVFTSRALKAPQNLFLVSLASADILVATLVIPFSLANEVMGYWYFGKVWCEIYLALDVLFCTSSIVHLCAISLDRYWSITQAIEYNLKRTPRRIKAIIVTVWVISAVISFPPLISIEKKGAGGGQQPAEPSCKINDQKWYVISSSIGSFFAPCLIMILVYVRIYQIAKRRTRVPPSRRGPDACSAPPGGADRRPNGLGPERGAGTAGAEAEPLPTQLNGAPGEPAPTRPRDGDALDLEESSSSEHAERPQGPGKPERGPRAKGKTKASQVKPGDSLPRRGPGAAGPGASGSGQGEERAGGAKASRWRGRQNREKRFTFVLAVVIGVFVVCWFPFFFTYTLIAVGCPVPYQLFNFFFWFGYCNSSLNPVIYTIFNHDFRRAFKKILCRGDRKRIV
Description: Alpha2D adrenergic receptor binding assay (3H-para-aminoclonidine, rat cortex synaptic membranes). Further details: species or system rat (male Wistar). How it is done:
Alpha2D adrenergic receptor binding assay
Male, Wistar rats (150-250 g, VAF, Charles River, Kingston, N.Y.) are sacrificed by cervical dislocation and their brains removed and placed immediately in ice cold HEPES buffered sucrose. The cortex is dissected out and homogenized in 20 volumes of HEPES sucrose in a Teflon®-glass homogenizer. The homogenate is centrifuged at 1000 g for 10 min, and the resulting supernatant centrifuged at 42,000 g for 10 min. The resulting pellet is resuspended in 30 volumes of 3 mM potassium phosphate buffer, pH 7.5, preincubated at 25° C. for 30 min and recentrifuged. The resulting pellet is resuspended as described above and used for the receptor binding assay. Incubation is performed in test tubes containing phosphate buffer, 2.5 mM MgCl2, aliquots of the synaptic membrane fraction, the ligand ^3 H-para-aminoclonidine and test drug at 25° C. for 20 min. The incubation is terminated by filtration of the tube contents through glass fiber filter sheets. Following washing of the sheets with 10 mM HEPES buffer, the adhering radioactivity is quantified by liquid scintillation spectrometry.
Binding of the test drug to the receptor is determined by comparing the amount of radiolabeled ligand bound in control tubes without drug to the amount of radiolabeled ligand bound in the presence of the drug. Dose-response data are analyzed with LIGAND, a nonlinear curve fitting program designed specifically for the analysis of ligand binding data. This assay is described by Simmons, R. M. A., and Jones, D. J., Binding of [^3 H-]prazosin and [^3 H-]p-aminoclonidine to α-Adrenoceptors in Rat Spinal Cord, Brain Research 445:338-349, 1988.

The subject of assay [2] is acetylcholine bromide-induced abdominal constriction response. Kind of assay: Mouse Acetylcholine Bromide-Induced Abdominal Constriction Assay. Particulars: for ED50 / inhibition in vivo at 30 mg/kg: Mus musculus; for ED50: 0.5 h, oral, 30 minutes before acetylcholine bromide 5.5 mg/kg i.p., dose producing 50% analgesia; for inhibition in vivo at 30 mg/kg: po. It is filed as in vivo. On the procedure: Mouse Acetylcholine Bromide-Induced Abdominal Constriction Assay
The mouse acetylcholine bromide-induced abdominal constriction assay, as described by Collier et al. in Brit. J. Pharmacol. Chem. Ther., 32: 295-310, 1968, with minor modifications was used to assess analgesic potency of the compounds herein. The test drugs or appropriate vehicle were administered orally (p.o.) and 30 minutes later the animal received an intraperitoneal (i.p.) injection of 5.5 mg/kg acetylcholine bromide (Matheson, Coleman and Bell, East Rutherford, N.J.). The mice were then placed in groups of three into glass bell jars and observed for a ten minute observation period for the occurrence of an abdominal constriction response (defined as a wave of constriction and elongation passing caudally along the abdominal wall, accompanied by a twisting of the trunk and followed by extension of the hind limbs). The percent inhibition of this response to a nociceptive stimulus (equated to % analgesia) was calculated as follows: The % Inhibition of response, i.e., % analgesia is equal to the difference between the number of control animals response and the number of drug-treated animals response times 100 divided by the number of control animals responding.
At least 15 animals were used for control and in each of the drug treated groups. At least three doses were used to determine each dose response curve and ED50 (that dose which would produce 50% analgesia). The ED50 values and their 95% fiducial limits were determined by a computer assisted probit analysis.

Setting [3] is: displacement of 3H-para-aminoclonidine, rat cortex membranes, 25° C., 20 min, read-out: Ki.
Setting [4] is: @ 30 mpk (route not given; method: orally).

The term Ki denotes the equilibrium dissociation constant of an inhibitor or competing ligand from its target. Usually ED50 stands for the dose that gives a 50% effect, or the effect in half of the subjects. Higher therefore signals weaker potency. For the compound `Cc1ccsc1Cc1c[nH]cn1.Cl` [Cp-1, 4-[(3-Methylthien-2-yl)methyl]-1H-imidazole Hydrochloride], in assay [1], the inhibition constant Ki is 0.45 nM. This compound showed a median effective dose (ED50) in assay [2] of 0.94 mg/kg.
The corresponding values for `Cc1ccsc1C(C)c1c[nH]cn1.Cl` (stereo not shown) [Cp-2, 4-[1-(3-methylthien-2-yl)ethyl]-1H-imidazole hydrochloride] are 2.1 nM and 1.4 mg/kg.
In assay [1], `Brc1ccsc1Cc1c[nH]cn1.Cl` [Cp-3, 4-[(3-Bromothien-2-yl)methyl]-1H-imidazole Hydrochloride] gave a Ki of 0.35 nM. Further, the ED50 in assay [2] amounted to 1.7 mg/kg.
In the same order, the values of `CC(c1c[nH]cn1)c1sccc1Br.Cl` (stereo not shown) [Cp-4, 4-[1-(3-Bromothien-2-yl)-ethyl]-1H-imidazole Hydrochloride] are 0.96 nM and 2.1 mg/kg.
As usually defined, the inhibition in vivo is the percentage by which the read-out fell short of the control. Higher therefore signals a response far below the control. The compound `Cc1csc(Cc2c[nH]cn2)c1C` [Cp-5, 4-[(3,4-dimethylthien-2-yl)methyl]-1H-imidazole hydrochloride] came in with an inhibition constant Ki in assay [1] of 0.17 nM. The compound further had an inhibition in vivo at 30 mg/kg in assay [2] (@ 30 mpk/po) of 100%.
In the same order, the values of `Cc1csc(C(C)c2c[nH]cn2)c1C` (stereo not shown) [Cp-6, 4-[-(3,4-Dimethylthien-2-yl)ethyl]-1H-imidazole Fumarate] are 0.75 nM and 87%.
For the compound `Brc1csc(Cc2c[nH]cn2)c1Br` [Cp-7, 4-[-(3,4-dibromothien-2-yl)methyl]-1H-imidazole fumarate], the affinity in assay [1], expressed as Ki, was 0.43 nM. Also, testing at 30 mg/kg in assay [2] (@ 30 mpk/po) gave an inhibition in vivo of 80%.
Take `CC(c1c[nH]cn1)c1scc(Br)c1Br` (stereo not shown) [Cp-8, 4-[(3,4-dibromothien-2-yl)ethyl]-1H-imidazole fumarate]: the inhibition constant Ki in assay [1] was 0.07 nM. The same compound gave an ED50 in assay [2] of 5.7 mg/kg.
In assay [1], `Brc1csc(Cc2c[nH]cn2)c1` [Cp-9, 4-[-(4-Bromothien-2-yl)methyl]1H-imidazole Hydrochloride] returned a Ki of 1.4 nM. For the same compound, the inhibition in vivo at 30 mg/kg in assay [2] (@ 30 mpk/po) came to 80%.
In the case of `CC(C)=C(c1c[nH]cn1)c1sccc1C` [drawing 24, reference compound], the Ki in assay [1] (setting [3]) was determined as 335 nM. Further, the “Mouse Abdominal Constriction % Inhibition” value in assay [2] (setting [4]) is given as 47%.
The corresponding values for `CC(C)=C(c1c[nH]cn1)c1sccc1C` [drawing 25, reference compound] are 1000 nM and 73%.
`Cc1ccc(Cc2c[nH]cn2)s1` [reference compound] gave a Ki in assay [1] of 3.6 nM. Besides, the inhibition in vivo at 30 mg/kg in assay [2] (setting [4]) turned out to be 33%.
In the same order, the values of `c1csc(Cc2c[nH]cn2)c1` [reference compound] are 8.7 nM and 60%.
The corresponding values for `CCC(c1c[nH]cn1)c1sccc1C` (stereo not shown) [reference compound] are 8.3 nM and 100%.

These data come from patent publication US5621113A, “4-[(thien-2-yl)methyl]-imidazole analgesics” (priority 1996, dated 1997).
